# Results published in PubChem BioAssay (NCI).
#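 Grown in 96-well plates, cells were treated for 48 hours with each compound at five concentrations. Insufficient inhibition: endpoint recorded as highest concentration tested. GI50 = concentration required for 50% inhibition of growth. At the TGI there is no net growth.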
# Key:
# Experiment in all cases: growth of human tumour cells (NCI), 48 h
# [1] = tested on: 786-0 renal
# [2] = tested on: A498 renal
# [3] = tested on: A549 NSCLC
# [4] = tested on: ACHN renal
# [5] = tested on: BT-549 breast
# [6] = tested on: CAKI-1 renal
# [7] = tested on: CCRF-CEM leukemia
# [8] = tested on: COLO 205 colon
# [9] = tested on: DU-145 prostate
# [10] = tested on: EKVX NSCLC
# [11] = tested on: HCC-2998 colon
# [12] = tested on: HCT-116 colon
# [13] = tested on: HCT-15 colon
# [14] = tested on: HL-60(TB) leukemia
# [15] = tested on: HOP-62 NSCLC
# [16] = tested on: HOP-92 NSCLC
# [17] = tested on: HS 578T breast
# [18] = tested on: HT29 colon
# [19] = tested on: IGROV1 ovarian
# [20] = tested on: K-562 leukemia
# [21] = tested on: KM12 colon
# [22] = tested on: LOX IMVI melanoma
# [23] = tested on: M14 melanoma
# [24] = tested on: MALME-3M melanoma
# [25] = tested on: MCF7 breast
# [26] = tested on: MDA-MB-231 breast
# [27] = tested on: MDA-MB-435
# [28] = tested on: MOLT-4 leukemia
# [29] = tested on: NCI-H226 lung
# [30] = tested on: NCI-H23 lung
# [31] = tested on: NCI-H460 lung
# [32] = tested on: NCI-H522 lung
# [33] = tested on: NCI/ADR-RES ovarian
# [34] = tested on: OVCAR-3 ovarian
# [35] = tested on: OVCAR-4 ovarian
# [36] = tested on: OVCAR-5 ovarian
# [37] = tested on: OVCAR-8 ovarian
# [38] = tested on: PC-3 prostate
# [39] = tested on: RPMI-8226 leukemia
# [40] = tested on: RXF 393 renal
# [41] = tested on: SF-268 CNS
# [42] = tested on: SF-295 CNS
# [43] = tested on: SF-539 CNS
# [44] = tested on: SK-MEL-2 melanoma
# [45] = tested on: SK-MEL-28 melanoma
# [46] = tested on: SK-MEL-5 melanoma
# [47] = tested on: SK-OV-3 ovarian
# [48] = tested on: SN12C renal
# [49] = tested on: SNB-19 CNS
# [50] = tested on: SNB-75 CNS
# [51] = tested on: SW-620 colon
# [52] = tested on: T-47D breast
# [53] = tested on: TK-10 renal
# [54] = tested on: U251 CNS
# [55] = tested on: UACC-257 melanoma
# [56] = tested on: UACC-62 melanoma
# [57] = tested on: UO-31 renal
structure (smiles),measurement,setting,value
Cc1cc(=O)oc2cc(OC/C=C3\CCC(=O)O3)ccc12,GI50,[1],10.5 µM
same,TGI,[1],44.1 µM
same,GI50,[2],28.7 µM
same,TGI,[2],79.4 µM
same,GI50,[3],31.2 µM
same,TGI,[3],> 91.4 µM
same,GI50,[4],5.05 µM
same,TGI,[4],15.4 µM
same,GI50,[5],15.8 µM
same,TGI,[5],40 µM
same,GI50,[6],7.59 µM
same,TGI,[6],26.8 µM
same,GI50,[7],3.96 µM
same,TGI,[7],30.3 µM
same,GI50,[8],5.8 µM
same,TGI,[8],20.5 µM
same,GI50,[9],5.31 µM
same,TGI,[9],22.9 µM
same,GI50,[10],21 µM
same,TGI,[10],54.4 µM
same,GI50,[11],16 µM
same,TGI,[11],31.4 µM
same,GI50,[12],8.38 µM
same,TGI,[12],24.6 µM
same,GI50,[13],10.6 µM
same,TGI,[13],23.9 µM
same,GI50,[14],4.47 µM
same,TGI,[14],32.2 µM
same,GI50,[15],21.6 µM
same,TGI,[15],58 µM
same,GI50,[16],12.1 µM
same,TGI,[16],28.4 µM
same,GI50,[17],22.9 µM
same,TGI,[17],> 87.4 µM
same,GI50,[18],9.7 µM
same,TGI,[18],29.3 µM
same,GI50,[19],13.2 µM
same,TGI,[19],28.7 µM
same,TGI,[20],7.84 µM
same,GI50,[21],18 µM
same,TGI,[21],47.9 µM
same,GI50,[22],7.99 µM
same,TGI,[22],22.9 µM
same,GI50,[23],9.51 µM
same,TGI,[23],25 µM
same,GI50,[24],13.6 µM
same,TGI,[24],33 µM
same,GI50,[25],5.73 µM
same,TGI,[25],27.6 µM
same,GI50,[26],16.9 µM
same,TGI,[26],34.7 µM
same,GI50,[27],7.23 µM
same,TGI,[27],40.9 µM
same,TGI,[28],0.011 µM
same,GI50,[29],24 µM
same,TGI,[29],> 63.1 µM
same,GI50,[30],14.4 µM
same,TGI,[30],29.9 µM
same,GI50,[31],19.3 µM
same,TGI,[31],> 62.7 µM
same,GI50,[32],7.82 µM
same,TGI,[32],23 µM
same,GI50,[33],23 µM
same,TGI,[33],82.9 µM
same,GI50,[34],12.2 µM
same,TGI,[34],28.8 µM
same,GI50,[35],15.8 µM
same,TGI,[35],37.4 µM
same,GI50,[36],17.1 µM
same,TGI,[36],36.4 µM
same,GI50,[37],23.5 µM
same,TGI,[37],> 74.5 µM
same,GI50,[38],9.01 µM
same,TGI,[38],34.1 µM
same,GI50,[39],3.2 µM
same,TGI,[39],18.7 µM
same,GI50,[40],13.1 µM
same,TGI,[40],31.9 µM
same,GI50,[41],15.3 µM
same,TGI,[41],50.2 µM
same,GI50,[42],59 µM
same,TGI,[42],> 100 µM
same,GI50,[43],13.1 µM
same,TGI,[43],46.1 µM
same,GI50,[44],17.9 µM
same,TGI,[44],60.2 µM
same,GI50,[45],16.4 µM
same,TGI,[45],33.6 µM
same,GI50,[46],17.6 µM
same,TGI,[46],37 µM
same,GI50,[47],28.2 µM
same,TGI,[47],> 76 µM
same,GI50,[48],15.2 µM
same,TGI,[48],34.9 µM
same,GI50,[49],15.5 µM
same,TGI,[49],49.2 µM
same,GI50,[50],16.8 µM
same,TGI,[50],40.1 µM
same,GI50,[51],5.56 µM
same,TGI,[51],28 µM
same,GI50,[52],14.3 µM
same,TGI,[52],35.3 µM
same,GI50,[53],12.2 µM
same,TGI,[53],27.2 µM
same,GI50,[54],14.5 µM
same,TGI,[54],30.9 µM
same,GI50,[55],21.5 µM
same,TGI,[55],> 62.1 µM
same,GI50,[56],13.8 µM
same,TGI,[56],28.7 µM
same,GI50,[57],12.8 µM
same,TGI,[57],26.3 µM
Nc1nc(SC2CCCCC2)nc2c1ncn2C1OC(CO)C(O)C1O (stereo not given),GI50,[23],14.8 µg/mL
same,GI50,[32],96.6 µg/mL
same,GI50,[50],69.8 µg/mL
